Experimental data reported in patent publication US10189805B2, “Metabolism probes for therapy and diagnosis” (Vanderbilt University, priority 2014, dated 2019).

Molecular target: ASCT2 (Homo sapiens (Human), UniProt Q15758)
Test: 3H-glutamine uptake inhibition in live HEK-293 cells
Type: cell-based
Details: for IC50: inhibition of 3H-glutamine (500 nM) uptake, HEK293 cells, 15 min at 37° C., pH 6.0; for potency compared with GPNA (in words): 3H-glutamine uptake, HEK-293 cells
Excerpt: Initial compound libraries focused on 2, 3, and 4 substituted Nγ-glutamylanilides with aryl, alicyclic, and heterocyclic substitutions. To evaluate the biological activity, compounds were initially screened at a single concentration for their ability to inhibit ^3H-glutamine uptake in live HEK-293 cells, an established model suitable for evaluating ASCT2 activity. […] The present inventors prioritized the 2-substitution as a determinant of ASCT2 activity among this series.
The glutamine uptake assays in HEK293 cells were carried out in 96 well plates (CulturPlate-96, Perkin Elmer). Cells were plated at a density of 35,000 cells per well 24 hours prior to carrying out the assay. Each set of conditions is carried out in triplicate. The wells are washed three times with 100 uL of assay buffer at pH 6.0 (containing 137 mM NaCl, 5.1 mM KCl, 0.77 mM KH2PO4, 0.71 mM MgSO4.7H2O, 1.1 mM CaCl2, 10 mM D-glucose, and 10 mM HEPES). […] (500 nM) in the same buffer is added along with inhibitor and allowed to incubate for 15 min at 37° C. Following incubation, the H-glutamine/inhibitor is removed and the cells are washed three times with buffer. The cells are then lysed by the addition of 50 uL 1M NaOH. 150 uL of scintillation fluid (Microscint 40, Perkin Elmer) is added and the plates are counted on a scintillation counter (Topcount, Perkin Elmer).

Sequence of ASCT2 (Q15758 whole entry): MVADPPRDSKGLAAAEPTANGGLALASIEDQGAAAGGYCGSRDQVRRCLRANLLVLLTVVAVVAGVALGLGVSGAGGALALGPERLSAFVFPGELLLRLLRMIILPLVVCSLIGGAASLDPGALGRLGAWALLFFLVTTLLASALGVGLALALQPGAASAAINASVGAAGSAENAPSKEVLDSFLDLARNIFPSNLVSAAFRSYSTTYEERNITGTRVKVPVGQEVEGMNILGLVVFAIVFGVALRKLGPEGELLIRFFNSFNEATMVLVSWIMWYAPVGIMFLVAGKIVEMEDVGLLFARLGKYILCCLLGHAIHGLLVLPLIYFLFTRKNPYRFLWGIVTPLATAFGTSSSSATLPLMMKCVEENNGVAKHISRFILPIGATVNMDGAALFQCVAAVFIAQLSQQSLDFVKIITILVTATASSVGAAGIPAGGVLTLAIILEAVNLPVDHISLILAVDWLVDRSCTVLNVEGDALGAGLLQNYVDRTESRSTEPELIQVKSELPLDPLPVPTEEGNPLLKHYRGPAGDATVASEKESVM

Row | Compound | IC50 | potency compared with GPNA (in words)
1 | N[C@@H](CCC(=O)Nc1ccc([N+](=O)[O-])cc1)C(=O)O [Compound 1, L-γ-glutamyl-p-nitroanilide, reference compound] | 954 µM | 
2 | N[C@@H](CCC(=O)Nc1ccccc1-c1nc2ccccc2s1)C(=O)O [Compound 4, N^5-(2-(benzo[d]thiazol-2-yl)phenyl)-L-glutamine] | 436 µM | significantly greater potency than GPNA
3 | N[C@@H](CCC(=O)Nc1ccccc1CCc1ccncc1)C(=O)O [Compound 16] | 832 µM | 

Continued, values first:

Row | IC50 | potency compared with GPNA (in words) | Compound
4 | 776 µM |  | N[C@@H](CCC(=O)Nc1ccccc1N1CCCCC1)C(=O)O [Compound 12]
5 | 677 µM |  | N[C@@H](CCC(=O)NCc1ccccc1CS(=O)(=O)N1CCOCC1)C(=O)O [Compound 19]
6 | 697 µM | significantly greater potency than GPNA | CN1CCN(Cc2ccccc2CNC(=O)CC[C@H](N)C(=O)O)CC1 [Compound 20, N5-(2-((4-methylpiperazin-1-yl)methyl)benzyl)-L-glutamine]
